Consider two compounds from publication PMC10643130, “Molecular basis for selective uptake and elimination of organic anions in the kidney by OAT1” (Nature Structural & Molecular Biology, 2023).

The term IC50 denotes the concentration at which inhibition is half-maximal.

The subject of one data set is OAT2. Conditions: cited from earlier work.
For the next data set, the system named is OAT3. Particulars: cited from earlier work.
Another data set concerns URAT1. Particulars: cited from earlier work.
The target of data set [1] is T1, human OAT1 Gly227Ala (G227A) (Homo sapiens, UniProt Q4U2R8, G227A).
T1 sequence (Q4U2R8 1-563 G227A): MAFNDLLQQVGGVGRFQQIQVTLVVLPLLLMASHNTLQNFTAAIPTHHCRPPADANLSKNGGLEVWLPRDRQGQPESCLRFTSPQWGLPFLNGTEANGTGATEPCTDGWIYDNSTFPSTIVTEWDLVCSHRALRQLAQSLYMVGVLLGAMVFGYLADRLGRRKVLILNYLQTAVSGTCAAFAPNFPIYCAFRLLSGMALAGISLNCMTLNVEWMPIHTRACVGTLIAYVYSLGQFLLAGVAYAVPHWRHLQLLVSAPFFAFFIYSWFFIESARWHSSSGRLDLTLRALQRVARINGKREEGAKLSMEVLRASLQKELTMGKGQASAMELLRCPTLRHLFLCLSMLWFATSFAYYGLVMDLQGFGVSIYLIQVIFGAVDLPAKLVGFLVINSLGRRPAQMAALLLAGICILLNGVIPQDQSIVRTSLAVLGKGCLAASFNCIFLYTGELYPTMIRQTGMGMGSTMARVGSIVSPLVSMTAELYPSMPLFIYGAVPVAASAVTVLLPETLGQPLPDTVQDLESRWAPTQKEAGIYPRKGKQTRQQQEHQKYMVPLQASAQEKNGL
In words: cell-based.

The target of data set [2] is T2, wild-type human OAT1 (HsOAT1) (Homo sapiens, UniProt Q4U2R8).
T2 sequence (Q4U2R8 1-563): T1 sequence (Q4U2R8 1-563 G227A) with A227G
In words: cell-based.
Description: (§1) To assay HsOAT1 transporter activity the model substrate 6-carboxyfluorescein (6-CF)[46],[47]
(§2) For transport assays, 1 × 10^5 cells per well were seeded into 24-well plates and 24 h later transfected using FUGENE HD (Promega E2311) Transfection Reagent (0.4 μg DNA per 1 μl of FUGENE per well) with HsOAT1 constructs containing a C-terminal FLAG tag in the vector pCDNA3.1 for 36 h. Expression of each mutant of HsOAT1 was assessed through western blotting on membrane fractions using an anti-FLAG antibody 1:3,000 dilution (Merck F1804), using a loading control of anti-β-actin 1:5,000 dilution (Merck A2228) (Extended Data Fig. 4). […] Background fluorescence was subtracted from cells transfected with the empty plasmid, and the data were normalized to 100%. To assess the activity of HsOAT1 in the presence and absence of chloride, the buffer was 120 mM NaCl, 28 mM glucose and 25 mM HEPES, pH 7.2 or for chloride-free conditions, and 120 mM sodium gluconate was used. […] To study the effect of ligands or inhibitors, the compound of interest was added to the assay buffer at the desired concentration. […] Each concentration was repeated three times to calculate standard errors, and the whole experiment was repeated three times to calculate the mean IC50 and standard error.

Data set [3] addresses T2, wild-type human OAT1 (HsOAT1). In words: Cell-based 6-CF transport assay, wild-type HsOAT1 in HeLa cells.
Description: as §1, §2
In data set [4] the target is T3, human OAT1 Tyr230Phe (Y230F) (Homo sapiens, UniProt Q4U2R8, Y230F).
T3 sequence (Q4U2R8 1-563 Y230F): T1 sequence (Q4U2R8 1-563 G227A) with A227G, Y230F
In words: Cell-based 6-CF transport assay, HsOAT1 Tyr230Phe mutant. Conditions: 8 min.

Data set [5] addresses T4, OAT1 Ser350Ala (S350A) mutant, human (Homo sapiens, UniProt Q4U2R8, S350A).
T4 sequence (Q4U2R8 1-563 S350A): T1 sequence (Q4U2R8 1-563 G227A) with A227G, S350A
In words: Cell-based 6-CF transport assay, HsOAT1 Ser350Ala mutant. Conditions: pH 7.2, probe 6-carboxyfluorescein (6-CF), 10 μM 6-CF, HeLa cells, mean ± s.d.

The mark [6] stands for this setting: 8 min, read-out: 6-CF uptake, Mean.

Structures are written as SMILES. Residue numbers refer to the chain shown, from its start. Where two headings read alike, the source gives them in different places.

For `CCCN(CCC)S(=O)(=O)c1ccc(C(=O)O)cc1` [probenecid], the “inhibition of OAT2” value in the data set on OAT2 is “poor inhibitor”. Also, in the data set on OAT3, the “inhibition of OAT3” value is “inhibitor”. In addition, in the data set with URAT1, the “inhibition of URAT1” value was “inhibitor”.

For the compound `C[C@H](Cn1cnc2c(N)ncnc21)OCP(=O)(O)O` [tenofovir], the remaining activity at 1 µM in data set [1] (setting [6]) stood at 99.8%; in data set [4] (read-out: 6-CF uptake, Mean) it was 99%. Further, the remaining activity at 2 µM in data set [1] (setting [6]) is 82.7%; in data set [4] (read-out: 6-CF uptake, Mean) it was 95.2%. The remaining activity at 2.30103 µM in data set [1] (setting [6]) stood at 69.5%; in data set [4] (read-out: 6-CF uptake, Mean) it was 87%. The remaining activity at 2.60206 µM in data set [1] (setting [6]) was determined as 40.3%; in data set [4] (read-out: 6-CF uptake, Mean) it was 68.5%. Further, the remaining activity at 3 µM in data set [1] (setting [6]) amounted to 31.2%; in data set [4] (read-out: 6-CF uptake, Mean), 52.3%. Also, the remaining activity at 3.17609 µM amounted to 15.6% in data set [1] (setting [6]) and 35% in data set [4] (read-out: 6-CF uptake, Mean). The “effect of Gly227Ala mutant on tenofovir recognition” value in data set [1] (versus wild type, Fig. 2f) is listed as “no discernible effect”. The 50% inhibitory concentration (IC50) in data set [2] is 120 ± 19 µM; in data set [4] (Tyr230Phe, 10 μM 6-CF, HeLa cells, mean ± s.d.), 450 ± 26 µM. For the same compound, the “6-CF uptake, MEAN” value in data set [3] was 99%; in data set [3] (WT Tenofovir, uM column 2), 79%; in data set [3] (WT Tenofovir, uM column 2.30103), 65%; in data set [3] (WT Tenofovir, uM column 2.60206), 35%; in data set [3] (WT Tenofovir, uM column 3), 24%; in data set [3] (WT Tenofovir, uM column 3.17609), 12%. In addition, the IC50 at 8 min in data set [5] was found to be 241 ± 11 µM.
